In patent US20240101576A1, “HETEROCYCLIC INHIBITORS OF EGFR AND/OR HER2, FOR USE IN THE TREATMENT OF CANCER” (Scorpion Therapeutics, Inc., priority 2020, published 2024):
pIC50: −log10 of the molar value.

Tests used:
Type in all cases: cell-based
[1] = molecular target: T1, EGFR exon 20 NPG Ins D770_N771 (Ba/F3 cells) (Homo sapiens, UniProt P00533, INS770NPG); assay: Inhibitor activity on EGFR phosphorylation (pEGFR AlphaLISA, 2 h), Ba/F3 EGFR exon 20 NPG Ins
T1 construct: expressed in transfected cells; host or cells: Ba/F3 (murine pro-B cells), retroviral transduction, puromycin selection, IL3-independent pool
T1 sequence (P00533 with tags, fused parts or gaps INS770NPG): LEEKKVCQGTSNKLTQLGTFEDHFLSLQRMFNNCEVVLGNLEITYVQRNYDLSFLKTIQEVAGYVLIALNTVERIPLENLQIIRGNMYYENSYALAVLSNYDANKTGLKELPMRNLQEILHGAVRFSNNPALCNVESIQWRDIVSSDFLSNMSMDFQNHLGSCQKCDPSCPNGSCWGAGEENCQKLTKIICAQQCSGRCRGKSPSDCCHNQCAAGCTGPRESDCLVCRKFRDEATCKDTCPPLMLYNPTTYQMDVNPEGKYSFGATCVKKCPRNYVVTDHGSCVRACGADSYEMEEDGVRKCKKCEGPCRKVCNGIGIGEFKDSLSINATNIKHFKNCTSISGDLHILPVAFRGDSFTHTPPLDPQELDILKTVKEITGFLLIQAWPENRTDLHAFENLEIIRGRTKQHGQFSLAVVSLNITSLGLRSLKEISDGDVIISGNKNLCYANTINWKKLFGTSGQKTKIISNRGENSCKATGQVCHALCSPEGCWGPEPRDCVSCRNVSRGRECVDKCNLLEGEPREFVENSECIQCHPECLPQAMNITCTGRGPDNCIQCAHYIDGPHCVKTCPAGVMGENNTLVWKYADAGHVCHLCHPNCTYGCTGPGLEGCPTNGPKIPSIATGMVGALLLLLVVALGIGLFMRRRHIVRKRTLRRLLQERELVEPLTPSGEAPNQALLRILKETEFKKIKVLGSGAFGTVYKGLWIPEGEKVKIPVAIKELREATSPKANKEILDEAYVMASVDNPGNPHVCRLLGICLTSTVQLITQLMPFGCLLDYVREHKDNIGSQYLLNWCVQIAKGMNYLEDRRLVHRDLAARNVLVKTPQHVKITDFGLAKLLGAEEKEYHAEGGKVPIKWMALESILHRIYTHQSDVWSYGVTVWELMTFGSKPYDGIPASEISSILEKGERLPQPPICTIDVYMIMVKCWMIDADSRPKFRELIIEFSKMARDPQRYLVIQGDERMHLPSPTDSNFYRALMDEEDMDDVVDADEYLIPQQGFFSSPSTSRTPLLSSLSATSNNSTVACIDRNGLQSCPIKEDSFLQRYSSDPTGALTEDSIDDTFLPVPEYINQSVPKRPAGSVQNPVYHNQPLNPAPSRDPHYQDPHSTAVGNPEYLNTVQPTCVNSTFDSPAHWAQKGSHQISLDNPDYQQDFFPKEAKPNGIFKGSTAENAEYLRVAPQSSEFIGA
Text: Example B. Inhibitor Activity on EGFR phosphorylation (pEGFR)
EGFR mutant Ba/F3 cells were generated by transduction with retrovirus containing vectors expressing EGFR L858R, EGFR exon 19del, EGFR L858R/C797S, EGFR exon 20 NPG Ins D770_N771, EGFR exon 20 ASV Ins V769_D770, or EGFR exon 20 SVD Ins D770_N771 genes along with a puromycin selection marker. Transduced cells are selected with puromycin for 7 days and are then be transferred into culture media without Interleukin 3 (IL3). Surviving cells are confirmed to express EGFR by Western blot and maintained as a pool. CUTO14 cells were obtained from Dr. Robert C. Doebele at the University of Colorado. The IC50 date are included in Table 6 and Table 7.
1.1 Cells are harvested from flask into cell culture medium and the cell number counted.
1.2 Cells are diluted with culture medium to the desired density and 40 μL of cell suspension is added into each well of 384-well cell culture plate and the seeding density is 50K cells/well (Ba/F3) or 12.5K cells/well (CUTO14).
2 Compound Preparation and Treatment
2.1 Test compounds are dissolved to 10 mM in a DMSO stock solution. 45 μL of stock solution is transferred to a 384 polypropylene plate (pp-plate). Perform 3-fold, 10-point dilution via transferring 15 μL compound into 30 μL DMSO using a TECAN (EVO200) liquid handler.
2.2 Spin plates at room temperature at 1,000 RPM for 1 minute.
2.3 Transfer 5 nL of diluted compound from compound source plate into the cell plate.
2.4 After compound treatment for 2 hours, perform pEGFR detection by AlphaLISA for compound treatment plates as described in “Detection” section.
3 Detection by pEGFR AlphaLISA (Perkin-Elmer)
3.1 Plates are removed from incubators and equilibrated at room temperature for 10 minutes, and media was removed
3.2 10 μL of lysis buffer is added and plates shaken at 600 rpm for 1 hr.
3.3 Prepare acceptor mix just before use and dispense 5 μL of acceptor mix to all the wells. Shake 350 rpm for Ihr in the dark
3.4 Prepare donor mix under low light conditions prior to use. Dispense 5 μL of donor mix to all the wells. Mix well on the shaker, seal and wrap in aluminum foil and incubate 1.5 hrs at room temperature in the dark
3.5 Transfer 18.5 μL mixture to OptiPlate 384, and read using an Envision. The IC50 date were included in Table 6 and Table 7.

[2] = molecular target: T2, EGFR exon 20 ASV Ins V769_D770 (Ba/F3 cells) (Homo sapiens, UniProt P00533, INS769ASV); assay: Inhibitor activity on EGFR-dependent cell growth (CellTiter-Glo, 72 h), Ba/F3 EGFR exon 20 ASV Ins; details: read-out: BaF3 ASV IC50
T2 construct: expressed in transfected cells; host or cells: Ba/F3 (murine pro-B cells), retroviral transduction, puromycin selection, IL3-independent pool
In short: (§1)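 IC50s derive from a sigmoidal dose–response fit of CellTiter-Glo signal. The signal was normalised between […]-treated cells and cell-free medium. Ba/F3 mutant-EGFR cells, seeded at 400–800/well depending on the line, had 72 h of exposure to a 10-point, 3-fold compound series.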

[3] = molecular target: T3, EGFR exon 20 SVD Ins D770_N771 (Ba/F3 cells) (Homo sapiens, UniProt P00533, INS770SVD); assay: Inhibitor activity on EGFR-dependent cell growth (CellTiter-Glo, 72 h), Ba/F3 EGFR exon 20 SVD Ins; details: read-out: BaF3 SVD IC50
T3 construct: expressed in transfected cells; host or cells: Ba/F3 (murine pro-B cells), retroviral transduction, puromycin selection, IL3-independent pool
T3 sequence (P00533 with tags, fused parts or gaps INS770SVD): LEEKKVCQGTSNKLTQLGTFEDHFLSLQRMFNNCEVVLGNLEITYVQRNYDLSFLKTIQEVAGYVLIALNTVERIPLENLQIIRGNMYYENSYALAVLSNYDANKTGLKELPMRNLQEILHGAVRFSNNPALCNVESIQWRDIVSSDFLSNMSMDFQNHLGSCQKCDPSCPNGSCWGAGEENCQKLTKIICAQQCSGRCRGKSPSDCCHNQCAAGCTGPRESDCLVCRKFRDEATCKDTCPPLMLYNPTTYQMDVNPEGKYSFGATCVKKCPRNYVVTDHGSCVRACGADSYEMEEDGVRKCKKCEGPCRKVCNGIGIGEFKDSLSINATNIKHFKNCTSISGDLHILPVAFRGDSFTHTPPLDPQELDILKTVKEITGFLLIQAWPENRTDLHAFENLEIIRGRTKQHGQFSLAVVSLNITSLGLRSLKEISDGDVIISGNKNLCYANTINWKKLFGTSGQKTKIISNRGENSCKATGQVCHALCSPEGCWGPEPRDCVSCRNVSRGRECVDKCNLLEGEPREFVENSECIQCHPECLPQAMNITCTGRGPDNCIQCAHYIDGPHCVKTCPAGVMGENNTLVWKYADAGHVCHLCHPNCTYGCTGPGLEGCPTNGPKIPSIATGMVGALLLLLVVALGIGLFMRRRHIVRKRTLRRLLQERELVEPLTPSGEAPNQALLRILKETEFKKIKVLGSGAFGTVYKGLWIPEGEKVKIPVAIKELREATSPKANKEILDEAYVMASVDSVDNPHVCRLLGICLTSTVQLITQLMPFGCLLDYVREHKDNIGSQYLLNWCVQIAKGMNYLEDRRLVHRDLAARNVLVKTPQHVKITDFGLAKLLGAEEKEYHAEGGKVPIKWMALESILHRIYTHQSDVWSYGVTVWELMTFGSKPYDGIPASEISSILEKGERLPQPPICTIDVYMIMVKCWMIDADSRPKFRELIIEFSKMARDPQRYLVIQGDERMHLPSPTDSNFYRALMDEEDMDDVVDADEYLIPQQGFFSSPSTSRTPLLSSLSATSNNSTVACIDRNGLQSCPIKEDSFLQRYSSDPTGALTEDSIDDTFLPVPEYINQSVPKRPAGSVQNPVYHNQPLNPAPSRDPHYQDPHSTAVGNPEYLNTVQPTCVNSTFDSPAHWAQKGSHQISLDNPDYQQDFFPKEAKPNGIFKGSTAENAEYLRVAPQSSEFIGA
In short: as §1

[4] = molecular target: T4, EGFR exon 20 FQEA Ins A763_V764 (Ba/F3 cells) (Homo sapiens, UniProt P00533, INS763FQEA); assay: Inhibitor activity on EGFR-dependent cell growth (CellTiter-Glo, 72 h), Ba/F3 EGFR exon 20 FQEA Ins; details: read-out: BaF3 FQEA IC50
T4 construct: expressed in transfected cells; host or cells: Ba/F3 (murine pro-B cells), retroviral transduction, puromycin selection, IL3-independent pool
T4 sequence (P00533 with tags, fused parts or gaps INS763FQEA): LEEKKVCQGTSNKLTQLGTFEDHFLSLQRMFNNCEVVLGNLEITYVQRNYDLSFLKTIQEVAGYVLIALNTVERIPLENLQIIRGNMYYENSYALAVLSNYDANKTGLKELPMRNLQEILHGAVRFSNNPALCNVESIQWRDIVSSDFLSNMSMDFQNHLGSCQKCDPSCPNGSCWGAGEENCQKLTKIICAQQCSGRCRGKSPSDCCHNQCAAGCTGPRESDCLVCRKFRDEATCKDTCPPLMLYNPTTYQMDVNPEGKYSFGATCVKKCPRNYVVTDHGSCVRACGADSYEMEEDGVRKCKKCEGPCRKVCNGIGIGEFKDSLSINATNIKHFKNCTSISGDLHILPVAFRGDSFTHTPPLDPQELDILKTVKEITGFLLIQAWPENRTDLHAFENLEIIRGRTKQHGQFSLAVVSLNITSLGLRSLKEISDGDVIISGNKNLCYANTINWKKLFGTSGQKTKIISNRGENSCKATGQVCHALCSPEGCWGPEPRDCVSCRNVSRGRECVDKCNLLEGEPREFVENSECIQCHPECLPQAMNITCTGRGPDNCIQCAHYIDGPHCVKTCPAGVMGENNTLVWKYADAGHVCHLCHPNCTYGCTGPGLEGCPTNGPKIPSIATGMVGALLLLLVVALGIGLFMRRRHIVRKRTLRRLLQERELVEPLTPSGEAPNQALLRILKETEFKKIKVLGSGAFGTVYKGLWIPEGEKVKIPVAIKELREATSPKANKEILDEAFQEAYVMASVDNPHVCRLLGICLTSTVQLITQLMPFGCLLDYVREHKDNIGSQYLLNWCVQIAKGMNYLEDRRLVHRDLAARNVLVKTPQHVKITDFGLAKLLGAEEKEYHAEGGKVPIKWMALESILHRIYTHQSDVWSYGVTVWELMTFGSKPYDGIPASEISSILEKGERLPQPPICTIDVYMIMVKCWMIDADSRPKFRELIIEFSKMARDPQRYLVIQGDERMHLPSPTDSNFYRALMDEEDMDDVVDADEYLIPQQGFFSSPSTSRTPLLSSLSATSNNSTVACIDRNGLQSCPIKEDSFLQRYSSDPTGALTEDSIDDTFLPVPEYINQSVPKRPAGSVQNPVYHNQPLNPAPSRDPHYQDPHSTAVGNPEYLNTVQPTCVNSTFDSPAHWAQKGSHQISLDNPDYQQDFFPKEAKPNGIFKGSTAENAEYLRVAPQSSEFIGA
In short: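 72 h proliferation, Ba/F3 EGFR mutants (no IL3, puromycin-selected pools, EGFR confirmed by Western blot). Seeding of 400 L858R, 600 L858R/C797S and 800 exon 19del/FQEA cells per well. CellTiter-Glo used; controls were […] (high) and medium alone (low).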

[5] = molecular target: T1, EGFR exon 20 NPG Ins D770_N771 (Ba/F3 cells); assay: Inhibitor activity on EGFR-dependent cell growth (CellTiter-Glo, 72 h), Ba/F3 EGFR exon 20 NPG Ins; details: read-out: BaF3 NPG IC50
In short: as §1

EGFR WT (Ba/F3 cells) = molecular target: T5, EGFR WT (Ba/F3 cells) (Homo sapiens, UniProt P00533); assay: Inhibitor activity on EGFR-dependent cell growth (CellTiter-Glo, 72 h), Ba/F3 EGFR WT; details: read-out: BaF3 WT IC50
T5 construct: expressed in transfected cells; host or cells: Ba/F3 (murine pro-B cells), retroviral transduction, puromycin selection, maintained with EGF
T5 sequence (P00533 25-1210): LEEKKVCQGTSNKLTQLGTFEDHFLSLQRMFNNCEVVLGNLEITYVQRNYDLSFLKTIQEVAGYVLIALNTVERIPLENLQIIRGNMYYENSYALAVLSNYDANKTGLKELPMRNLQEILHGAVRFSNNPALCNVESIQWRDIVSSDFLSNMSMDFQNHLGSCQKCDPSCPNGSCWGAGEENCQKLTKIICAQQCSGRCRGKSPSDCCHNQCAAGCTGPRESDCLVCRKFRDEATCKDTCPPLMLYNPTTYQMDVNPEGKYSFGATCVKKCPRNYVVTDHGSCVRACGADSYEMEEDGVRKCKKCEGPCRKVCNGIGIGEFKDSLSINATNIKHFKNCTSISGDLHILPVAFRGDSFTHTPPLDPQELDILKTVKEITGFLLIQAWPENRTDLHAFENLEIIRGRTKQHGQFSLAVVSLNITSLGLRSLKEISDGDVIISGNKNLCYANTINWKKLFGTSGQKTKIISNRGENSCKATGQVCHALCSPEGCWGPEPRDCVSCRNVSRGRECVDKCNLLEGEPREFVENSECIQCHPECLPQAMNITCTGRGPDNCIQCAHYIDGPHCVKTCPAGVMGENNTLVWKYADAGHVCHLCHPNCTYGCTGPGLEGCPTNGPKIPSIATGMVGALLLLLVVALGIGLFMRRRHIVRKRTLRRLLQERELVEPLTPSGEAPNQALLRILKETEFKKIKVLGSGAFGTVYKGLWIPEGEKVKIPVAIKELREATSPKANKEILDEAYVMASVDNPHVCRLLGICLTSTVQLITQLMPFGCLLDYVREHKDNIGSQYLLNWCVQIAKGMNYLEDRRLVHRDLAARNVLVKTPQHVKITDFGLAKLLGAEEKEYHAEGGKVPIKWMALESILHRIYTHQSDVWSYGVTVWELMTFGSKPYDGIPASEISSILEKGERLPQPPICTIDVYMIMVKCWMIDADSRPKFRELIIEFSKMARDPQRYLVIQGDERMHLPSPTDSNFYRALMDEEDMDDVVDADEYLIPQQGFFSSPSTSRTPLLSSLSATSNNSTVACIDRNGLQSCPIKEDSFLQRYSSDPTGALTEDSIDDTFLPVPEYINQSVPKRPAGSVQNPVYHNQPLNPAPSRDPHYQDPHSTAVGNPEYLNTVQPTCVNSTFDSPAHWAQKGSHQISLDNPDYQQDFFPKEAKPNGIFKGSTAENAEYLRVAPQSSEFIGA
In short: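 This growth assay used Ba/F3 cells that depend on wild-type EGFR and are kept in EGF without IL3. Compounds were made up as 10 mM DMSO stocks and diluted 3-fold over 10 points. 120 nL went onto 600 cells/well. After 72 hours, 40 μL CellTiter-Glo was added and luminescence read on EnVision after 30 min.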

[6] = molecular target: T2, EGFR exon 20 ASV Ins V769_D770 (Ba/F3 cells); assay: Inhibitor activity on EGFR phosphorylation (pEGFR AlphaLISA, 2 h), Ba/F3 EGFR exon 20 ASV Ins; details: EGFR phosphorylation, AlphaLISA, 2 hours; read-out: ASV IC50 (pEGFR)
In short: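 Steps: seed cells (Ba/F3 50K, CUTO14 12.5K per well); add 3-fold, 10-point compound dilution; incubate 2 h; lyse 1 hr; add acceptor then donor beads (1.5 hrs, RT, dark); read AlphaLISA signal for IC50.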

## COc1ccc2nccc(-c3[nH]c4c(c3Nc3cccc(Cl)c3OC)C(=O)NCC4)c2n1 [Compound 149, 3-((3-chloro-2-methoxyphenyl)amino)-2-(6-methoxy-1,5-naphthyridin-4-yl)-1,5,6,7-tetrahydro-4H-pyrrolo[3,2-c]pyridin-4-one]
[1]
  pIC50: > 7.00
[2]
  pIC50: > 7.00
[3]
  pIC50: > 7.00
[4]
  pIC50: > 7.00
[5]
  pIC50: > 7.00

## CNc1ccc2nccc(-c3[nH]c4c(c3Nc3cccc(Cl)c3OC)C(=O)NCC4)c2n1 [Compound 152, 3-((3-chloro-2-methoxyphenyl)amino)-2-(6-(methylamino)-1,5-naphthyridin-4-yl)-1,5,6,7-tetrahydro-4H-pyrrolo[3,2-c]pyridin-4-one]
EGFR WT (Ba/F3 cells)
  pIC50: > 7.00
[1]
  pIC50: > 7.00
[5]
  pIC50: > 7.00
[6]
  pIC50: > 7.00

## COc1c(F)cccc1Nc1c(-c2ncnc3cccnc23)[nH]c2c1C(=O)NCC2 [Compound 154, 3-((3-fluoro-2-methoxyphenyl)amino)-2-(pyrido[3,2-d]pyrimidin-4-yl)-1,5,6,7-tetrahydro-4H-pyrrolo[3,2-c]pyridin-4-one]
EGFR WT (Ba/F3 cells)
  pIC50: > 7.00
[1]
  pIC50: 6.00 to 7.00
[5]
  pIC50: < 6.00
[6]
  pIC50: < 6.00

## C=CC(=O)N1CCN(c2ncc3nccc(-c4[nH]c5c(c4Nc4cccc(F)c4OC)C(=O)NCC5)c3n2)CC1 [Compound 576, 3-[(3-fluoro-2-methoxyphenyl)amino]-2-{2-[4-(prop-2-enoyl)piperazin-1-yl]pyrido[3,2-d]pyrimidin-8-yl}-1H,5H,6H,7H-pyrrolo[3,2-c]pyridin-4-one]
EGFR WT (Ba/F3 cells)
  pIC50: > 7.00
[1]
  pIC50: > 7.00
[2]
  pIC50: > 7.00
[3]
  pIC50: > 7.00
[5]
  pIC50: > 7.00

## COc1ccc2nccc(-c3[nH]c4c(c3Nc3cccc(F)c3OC)C(=O)NCC4)c2n1 [Compound 681, 3-[(3-fluoro-2-methoxyphenyl)amino]-2-(6-methoxy-1,5-naphthyridin-4-yl)-1H,5H,6H,7H-pyrrolo[3,2-c]pyridin-4-one]
EGFR WT (Ba/F3 cells)
  pIC50: > 7.00
[1]
  pIC50: > 7.00
[2]
  pIC50: > 7.00
[3]
  pIC50: > 7.00
[4]
  pIC50: > 7.00
[5]
  pIC50: > 7.00

## COc1ccc2nccc(-c3[nH]c4c(c3Nc3cccc(F)c3C)C(=O)NCC4)c2n1 [Compound 684, 3-[(3-fluoro-2-methylphenyl)amino]-2-(6-methoxy-1,5-naphthyridin-4-yl)-1H,5H,6H,7H-pyrrolo[3,2-c]pyridin-4-one]
EGFR WT (Ba/F3 cells)
  pIC50: 6.00 to 7.00
[1]
  pIC50: > 7.00
[2]
  pIC50: > 7.00
[3]
  pIC50: > 7.00
[4]
  pIC50: > 7.00
[5]
  pIC50: > 7.00

## CNc1nccc(-c2[nH]c3c(c2Nc2cccc(F)c2C)C(=O)NCC3)n1 [Compound 690, 3-[(3-fluoro-2-methylphenyl)amino]-2-[2-(methylamino)pyrimidin-4-yl]-1H,5H,6H,7H-pyrrolo[3,2-c]pyridin-4-one]
EGFR WT (Ba/F3 cells)
  pIC50: > 7.00
[1]
  pIC50: > 7.00
[5]
  pIC50: 6.00 to 7.00
[6]
  pIC50: > 7.00

## C=CC(=O)N1CCC(Oc2nc3c(-c4[nH]c5c(c4Nc4cccc(Cl)c4OC)C(=O)NCC5)ccnc3cc2OC)CC1 [Compound 731, 3-[(3-chloro-2-methoxyphenyl)amino]-2-(7-methoxy-6-{[1-(prop-2-enoyl)piperidin-4-yl]oxy}-1,5-naphthyridin-4-yl)-1H,5H,6H,7H-pyrrolo[3,2-c]pyridin-4-one]
EGFR WT (Ba/F3 cells)
  pIC50: > 7.00
[1]
  pIC50: > 7.00
[2]
  pIC50: > 7.00
[3]
  pIC50: > 7.00
[5]
  pIC50: > 7.00

## COc1c(Cl)cccc1Nc1c(-c2ccnc(C)n2)[nH]c2c1C(=O)NCC2 [compound 206]
EGFR WT (Ba/F3 cells)
  pIC50: 6.00 to 7.00
[1]
  pIC50: > 7.00
[5]
  pIC50: 6.00 to 7.00
[6]
  pIC50: 6.00 to 7.00

## COc1c(F)cccc1Nc1c(-c2ccnc(N)n2)[nH]c2c1C(=O)NCC2 [compound 281]
EGFR WT (Ba/F3 cells)
  pIC50: < 6.00
[1]
  pIC50: > 7.00
[4]
  pIC50: 6.00 to 7.00
[5]
  pIC50: > 7.00

## Nc1nccc(-c2[nH]c3c(c2Nc2cccc(F)c2OC(F)F)C(=O)NCC3)n1 [compound 299]
EGFR WT (Ba/F3 cells)
  pIC50: < 6.00
[1]
  pIC50: > 7.00
[2]
  pIC50: 6.00 to 7.00
[3]
  pIC50: 6.00 to 7.00
[4]
  pIC50: 6.00 to 7.00
[5]
  pIC50: 6.00 to 7.00

## COc1c(Cl)cccc1Nc1c(-c2ccnc3cnc(OC4COC4)nc23)[nH]c2c1C(=O)NCC2 [compound 441]
EGFR WT (Ba/F3 cells)
  pIC50: 6.00 to 7.00
[1]
  pIC50: > 7.00
[2]
  pIC50: > 7.00
[3]
  pIC50: > 7.00
[4]
  pIC50: > 7.00
[5]
  pIC50: > 7.00

## COc1c(F)cccc1Nc1c(-c2ccnc3cccnc23)[nH]c2c1C(=O)NCC2 [compound 442]
EGFR WT (Ba/F3 cells)
  pIC50: 6.00 to 7.00
[1]
  pIC50: > 7.00
[2]
  pIC50: > 7.00
[3]
  pIC50: > 7.00
[4]
  pIC50: > 7.00
[5]
  pIC50: > 7.00

## COc1c(Cl)cccc1Nc1c(-c2ccnc3cnc(OCCN(C)C)nc23)[nH]c2c1C(=O)NCC2 [compound 502, 3-[(3-chloro-2-methoxyphenyl)amino]-2-{2-[2-(dimethylamino)ethoxy]pyrido[3,2-d]pyrimidin-8-yl}-1H,5H,6H,7H-pyrrolo[3,2-c]pyridin-4-one]
EGFR WT (Ba/F3 cells)
  pIC50: < 6.00
[1]
  pIC50: > 7.00
[2]
  pIC50: 6.00 to 7.00
[3]
  pIC50: 6.00 to 7.00
[4]
  pIC50: 6.00 to 7.00
[5]
  pIC50: 6.00 to 7.00

## COc1c(Cl)cccc1Nc1c(-c2ccnc(Nc3cn(C)nn3)n2)[nH]c2c1C(=O)NCC2 [compound 511, 3-[(3-chloro-2-methoxyphenyl)amino]-2-{2-[(1-methyl-1,2,3-triazol-4-yl)amino]pyrimidin-4-yl}-1H,5H,6H,7H-pyrrolo[3,2-c]pyridin-4-one]
EGFR WT (Ba/F3 cells)
  pIC50: 6.00 to 7.00
[1]
  pIC50: > 7.00
[2]
  pIC50: > 7.00
[3]
  pIC50: > 7.00
[4]
  pIC50: > 7.00
[5]
  pIC50: > 7.00

## COc1cc2nccc(-c3[nH]c4c(c3Nc3cccc(Cl)c3OC)C(=O)NCC4)c2nc1OC [compound 730, 3-[(3-chloro-2-methoxyphenyl)amino]-2-(6,7-dimethoxy-1,5-naphthyridin-4-yl)-1H,5H,6H,7H-pyrrolo[3,2-c]pyridin-4-one]
EGFR WT (Ba/F3 cells)
  pIC50: > 7.00
[1]
  pIC50: > 7.00
[2]
  pIC50: > 7.00
[3]
  pIC50: > 7.00
[4]
  pIC50: > 7.00
[5]
  pIC50: > 7.00

## COc1c(Cl)cccc1Nc1c(-c2ccnc3ccc(OCC4CC(F)(F)C4)nc23)[nH]c2c1C(=O)NCC2 [compound 757, 3-[(3-chloro-2-methoxyphenyl)amino]-2-[6-[(3,3-difluorocyclobutyl)methoxy]-1,5-naphthyridin-4-yl]-1H,5H,6H,7H-pyrrolo[3,2-c]pyridin-4-one]
EGFR WT (Ba/F3 cells)
  pIC50: 6.00 to 7.00
[1]
  pIC50: > 7.00
[2]
  pIC50: > 7.00
[3]
  pIC50: > 7.00
[4]
  pIC50: > 7.00
[5]
  pIC50: 6.00 to 7.00
